One assay addresses T1, PD-1/PD-L1 binding (Homo sapiens, UniProt Q9NZQ7).
T1 construct: purchased Sino Biological Inc. 10084-H02H-100 (PD-L1-Fc); 10377-H08H-50 (His-PD-1)
As to the kind of experiment: HTRF inhibition of PD-1/PD-L1 binding in vitro. The note with it: His-PD-1 100 nM, PD-L1-Fc 2 nM, read-out: IC50 inhibiting PD-1/PD-L1 binding in vitro. An excerpt:
Homogeneous Time-Resolved Fluorescence (HTRF): This method used the recombinant human PD-L1 protein fused to express the hFc tag and the recombinant human PD-1 protein fused to express the His tag, both of which were interacting ligands and receptors. When the anti-hFc antibody containing Eu element chelation marker and the anti-His antibody labeled with XL665 fluorescein were bound with the above two corresponding labels, and excited by a laser with a wavelength of 320 nm, the ligand-receptor binding enabled the energy to be transferred from the Eu element to the XL665 fluorescein, which was excited to emit light at a wavelength of 665 nm. However, when an inhibitor of the interaction between PD-L1 and PD-1 was added, the binding of the ligand to the receptor was destroyed, so that the distance between Eu and XL665 was far away, the energy cannot be transferred, and XL665 would not be excited.
Recombinant human PD-1 protein with His tag (His-PD-1 protein, Cat #: 10377-H08H-50), and recombinant human PD-L1-Fc fusion protein (PD-L1-Fc fusion protein, Cat #: 10084-H02H-100) were purchased from Sino Biological Inc., […] and anti-His-XL665 antibody were purchased from Cisbio Company, and other related reagents such as dilution buffer (Diluent buffer 5, Cat #: 62DL5DDC), detection buffer (PPI-Europium detection buffer, Cat #: 61DB9RDF) were purchased from Cisbio Company. Fluorescence detection instrument Tecan (Spark 10 M) was purchased from Switzerland Tecan Company.
(1) Experimental preparation: The test compound was diluted with dilution buffer into different concentration gradients (the highest final concentration in 20 μL final reaction system was 10 μM), His-PD-1 protein was diluted to 800 nM (the final concentration in 20 μL final reaction system was 100 nM), and the PD-L1-Fc fusion protein was diluted to 16 nM (final concentration was 2 nM). The anti-His-XL665 antibody and anti-hFc-Eu^3+ antibody were respectively diluted 20 times and 100 times using the detection buffer according to the reagent requirements.
(2) 5 μL of test compound, 2.5 μL of PD-L1-Fc fusion protein and 2.5 μL of His-PD-1 protein solution were mixed, and incubated at room temperature for 15 min. Then the system was added with 5 μL of anti-His-XL665 antibody and 5 μL of anti-hFc-Eu^3+ antibody, incubated for another 3 h, and then detected.
(3) When detecting the reaction, a control group was also provided, including a 0% inhibition positive control without adding test compounds and a 100% inhibition negative control without adding PD-1 protein. All detections were performed with duplicates.
(4) The fluorescence signal of each well was measured using a fluorescence detector Tecan (Spark 10M) at an excitation wavelength of 320 nm, and emission wavelengths of 620 nm and 665 nm, respectively. The intensity of the mutual binding of PD-1 and PD-L1 referred to the ratio of fluorescence signals Em665/Em620.
(5) The binding inhibition rate of the test compound was calculated as follows: Inhibition rate (%)=[1−(Fluorescence signal ratio of detection well-fluorescence signal ratio of 100% inhibition negative control)]/(fluorescence signal ratio of 0% inhibition positive control-fluorescence signal ratio of 100% inhibition negative control)×100%. After calculating the inhibition rate on PD-1/PD-L1 binding of the test compounds with different concentration gradients, the 50% inhibitory concentration (IC50) was calculated.
For orientation: In TR-FRET formats the signal depends on donor and acceptor labels being close together.

The next assay concerns the target T2, CD80/PD-L1 binding (Homo sapiens, UniProt Q9NZQ7).
T2 construct: purchased Sino Biological Inc. 10084-H02H-100 (PD-L1-Fc); 10698-H08H-100 (His-CD80)
As to the kind of experiment: HTRF inhibition of CD80/PD-L1 binding in vitro. To be noted: His-CD80 100 nM, PD-L1-Fc 2 nM, read-out: IC50 inhibiting CD80/PD-L1 binding in vitro. An excerpt: In addition to PD-1, PD-L1 can also exert immunosuppressive activity by binding to CD80. Similarly, in vitro experiments of binding or binding inhibition of CD80 and PD-L1 can also be measured by homogeneous time-resolved fluorescence (HTRF). When the anti-hFc-Eu^3+ antibody and anti-His-XL665 antibody were bound to the hFC tag fused to PD-L1 and the His tag fused to CD80 respectively, and excited with a 320 nm wavelength laser, the binding of PD-L1 and CD80 enabled energy to be transferred from the Eu element to the XL665 fluorescein, which was excited to emit light. When the inhibitor of the interaction between PD-L1 and CD80 was added, the combination of the two was destroyed, so that the distance between Eu and XL665 was far away, the energy cannot be transferred, and XL665 would not be excited.
Recombinant human CD80 protein with His tag (His-CD80 protein, Cat #: 10698-H08H-100), and recombinant human PD-L1-Fc fusion protein (PD-L1-Fc fusion protein, Cat #: 10084-H02H-100) were purchased from Sino Biological Inc., anti-hFc-Eu^3+ antibody and anti-His-XL665 antibody were purchased from Cisbio Company, and other related reagents such as dilution buffer (Diluent buffer 5, Cat #: 62DL5DDC), detection buffer (PPI-Europium detection buffer, Cat #: 61DB9RDF) were purchased from Cisbio Company. Fluorescence detection instrument Tecan (Spark 10 M) was purchased from Switzerland Tecan Company.
(1) Experimental preparation: The test compound was diluted with dilution buffer into different concentration gradients (the highest final concentration in 20 μL final reaction system was 10 μM), His-CD80 protein was diluted to 800 nM (the final concentration in 20 μL final reaction system was 100 nM), and the PD-L1-Fc fusion protein was diluted to 16 nM (final concentration was 2 nM). The anti-His-XL665 antibody and anti-hFc-Eu^3+ antibody were respectively diluted 20 times and 100 times using the detection buffer according to the reagent requirements.
(2) 5 μL of test compound, 2.5 μL of Hid-CD80 protein and 2.5 μL of […] solution were mixed, and incubated at room temperature for 15 min. Then the system was added with 5 μL of anti-His-XL665 antibody and 5 μL of anti-hFc-Eu^3+ antibody, incubated for another 3 h, and then detected.
(3) When detecting the reaction, a control group was provided, including a 0% inhibition positive control without adding test compounds and a 100% inhibition negative control without adding CD-80 protein. All detections were performed with duplicates.
(4) The fluorescence signal of each well was measured using a fluorescence detector Tecan (Spark 10M) at an excitation wavelength of 320 nm, and emission wavelengths of 620 nm and 665 nm, respectively. The intensity of the mutual binding of CD80 and PD-L1 referred to the ratio of fluorescence signals Em665/Em620.
(5) The binding inhibition rate of the test compound was calculated as follows: Inhibition rate (%)=[1−(Fluorescence signal ratio of detection well-fluorescence signal ratio of 100% inhibition negative control)]/(fluorescence signal ratio of 0% inhibition positive control-fluorescence signal ratio of 100% inhibition negative control)×100%. After calculating the inhibition rate on CD80/PD-L1 binding of the test compounds with different concentration gradients, the 50% inhibitory concentration (IC50) was calculated.

T2 sequence (Q9NZQ7 19-239 limits assumed): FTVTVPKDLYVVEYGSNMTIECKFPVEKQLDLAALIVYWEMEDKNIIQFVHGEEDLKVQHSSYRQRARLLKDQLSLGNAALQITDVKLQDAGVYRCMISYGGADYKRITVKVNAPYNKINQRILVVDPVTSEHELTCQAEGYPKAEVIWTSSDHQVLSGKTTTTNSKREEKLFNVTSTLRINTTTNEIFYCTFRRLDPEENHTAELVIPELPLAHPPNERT
T1 sequence (Q9NZQ7 19-239 limits assumed): as above

Consider `[2H]C([2H])([2H])n1c(C(=O)Nc2cccc(-c3cccc(NC(=O)c4nc5c(n4C([2H])([2H])[2H])CCN(CCC46CCC(C(=O)O)(CC4)C6)C5)c3Cl)c2Cl)nc2c1CCN(CCC13CCC(COC)(CC1)C3)C2` [Compound I-6, 4-(2-(2-((2,2′-dichloro-3′-(5-(2-(4-((methoxy)methyl)bicyclo[2.2.1]heptane-1-yl)ethyl)-1-(methyl-d3)-4,5,6,7-tetrahydro-1H-imidazo[4,5-c]pyridine-2-carboxamido)-[1,1′-biphenyl]-3-yl)carbamoyl)-1-(methyl-d3)-1,4,6,7-tetrahydro-5H-imidazo[4,5-c]pyridin-5-yl)ethyl)bicyclo[2.2.1]heptane-1-carboxylic acid], for which the values for the IC50 at PD-1/PD-L1 binding and on CD80/PD-L1 binding were 1 nM and 0.95 nM, respectively.

Regarding `[2H]C([2H])([2H])OCC12CCC(CCN3CCc4c(nc(C(=O)Nc5cccc(-c6cccc(NC(=O)c7nc8c(n7C([2H])([2H])[2H])CCN(CCC79CCC(C(=O)O)(CC7)C9)C8)c6Cl)c5C)n4C([2H])([2H])[2H])C3)(CC1)C2` [Compound I-9, 4-(2-(2-((2-chloro-3′-(5-(2-(4-((methoxy-d3)methyl)bicyclo[2.2.1]heptane-1-yl)ethyl)-1-(methyl-d3)-4,5,6,7-tetrahydro-1H-imidazo[4,5-c]pyridine-2-carboxamido)-2′-methyl-[1,1′-biphenyl]-3-yl)carbamoyl)-1-(methyl-d3)-1,4,6,7-tetrahydro-5H-imidazo[4,5-c]pyridin-5-yl)ethyl)bicyclo[2.2.1]heptane-1-carboxylic acid], the results for the IC50 at PD-1/PD-L1 binding and at CD80/PD-L1 binding were 3.77 nM and 3.42 nM, respectively.

The values are drawn from patent US20260234164A1, “BIPHENYL COMPOUND AS IMMUNOMODULATOR, PREPARATION METHOD THEREFOR AND USE THEREOF” (SHENZHEN CHIPSCREEN BIOSCIENCES CO., LTD., priority 2021, published 2026).
